Assay results published in US20150105252A1, “SUBSTITUTED PYRAZOLES AS HERBICIDES” (E I DU PONT DE NEMOURS AND COMPANY, priority 2013, published 2015).

How the values were obtained:
oilseed rape [1] = assay: Test D postemergence; type: in vivo, Brassica napus; conditions: scale 0 to 100
Method in brief: (§1)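 Seeds are planted in silt loam and treated preemergence, while parallel plantings in a peat moss/vermiculite medium with starter nutrients receive postemergence sprays at the 1- to 4-leaf stage. All formulations use a non-phytotoxic solvent mixture with surfactant. Plants are kept in a controlled growth environment and rated visually after 14–21 days.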

bromegrass, downy = assay: Test D preemergence; type: in vivo, Bromus tectorum; conditions: Preemergence, scale 0 to 100
Method in brief: as §1

deadnettle = assay: Test D postemergence; type: in vivo, Lamium amplexicaule; conditions: scale 0 to 100
Method in brief: as §1

field poppy = assay: Test D preemergence; type: in vivo, Papaver rhoeas; conditions: Preemergence, scale 0 to 100
Method in brief: as §1

field violet = assay: Test D preemergence; type: in vivo, Viola arvensis; conditions: Preemergence, scale 0 to 100
Method in brief: as §1

kochia = assay: Test D postemergence; type: in vivo, Kochia scoparia; conditions: scale 0 to 100
Method in brief: as §1

wheat, winter = assay: Test D preemergence; type: in vivo, Triticum aestivum; conditions: Preemergence, scale 0 to 100
Method in brief: as §1

wheat, spring = assay: Test D preemergence; type: in vivo, Triticum aestivum; conditions: Preemergence, scale 0 to 100
Method in brief: as §1

bluegrass [2] = assay: Test D postemergence; type: in vivo, Poa annua; conditions: scale 0 to 100
Method in brief: as §1

blackgrass = assay: Test D postemergence; type: in vivo, Alopecurus myosuroides; conditions: scale 0 to 100
Method in brief: as §1

windgrass = assay: Test D preemergence; type: in vivo, Apera spica-venti; conditions: Preemergence, scale 0 to 100
Method in brief: as §1

chickweed = assay: Test D postemergence; type: in vivo, Stellaria media; conditions: scale 0 to 100
Method in brief: as §1

foxtail, green = assay: Test D preemergence; type: in vivo, Setaria viridis; conditions: Preemergence, scale 0 to 100
Method in brief: as §1

oilseed rape [3] = assay: Test D preemergence; type: in vivo, Brassica napus; conditions: Preemergence, scale 0 to 100
Method in brief: as §1

canarygrass = assay: Test D postemergence; type: in vivo, Phalaris minor; conditions: scale 0 to 100
Method in brief: as §1

bluegrass [4] = assay: Test D preemergence; type: in vivo, Poa annua; conditions: Preemergence, scale 0 to 100
Method in brief: as §1

ryegrass, Italian = assay: Test D postemergence; type: in vivo, Lolium multiflorum; conditions: scale 0 to 100
Method in brief: as §1

galium = assay: Test D preemergence; type: in vivo, Galium aparine; conditions: Preemergence, scale 0 to 100
Method in brief: as §1

buckwheat, wild = assay: Test D postemergence; type: in vivo, Polygonum convolvulus; conditions: scale 0 to 100
Method in brief: as §1

mustard, wild = assay: Test D postemergence; type: in vivo, Sinapis arvensis; conditions: scale 0 to 100
Method in brief: as §1

radish, wild = assay: Test D postemergence; type: in vivo, Raphanus raphanistrum; conditions: scale 0 to 100
Method in brief: as §1

For `CCCc1cc(C(=O)NC(C)C)nn1Cc1cc(C(F)(F)F)nn1C` [Compound 201], the “Oilseed Rape plant response rating” value (oilseed rape [1]; Postemergence, 31 g ai/ha) was 40, the “Oilseed Rape plant response rating” value (oilseed rape [1]; Postemergence, 125 g ai/ha) was 50 and the “Oilseed Rape plant response rating” value (oilseed rape [1]; Postemergence, 250 g ai/ha) was 70. For the same molecule, the “Oilseed Rape plant response rating” value (oilseed rape [1]; postemergence, 62 g ai/ha) was 40, the “Plant response rating, Bromegrass, Downy” value (bromegrass, downy; 31 g ai/ha) was 20 and the “Plant response rating, Bromegrass, Downy” value (bromegrass, downy; 62 g ai/ha) was 60. The “Plant response rating, Bromegrass, Downy” value (bromegrass, downy; 125 g ai/ha) was 70, the “Plant response rating, Bromegrass, Downy” value (bromegrass, downy; 250 g ai/ha) was 100 and the “Deadnettle plant response rating” value (deadnettle; Postemergence, 31 g ai/ha) was 55. The “Deadnettle plant response rating” value (deadnettle; Postemergence, 125 g ai/ha) was 60, the “Deadnettle plant response rating” value (deadnettle; Postemergence, 250 g ai/ha) was 65 and the “Deadnettle plant response rating” value (deadnettle; postemergence, 62 g ai/ha) was 55. For the same molecule, the “Plant response rating, Field Poppy” value (field poppy; 62 g ai/ha) was 100, the “Plant response rating, Field Poppy” value (field poppy; 125 g ai/ha) was 100 and the “Plant response rating, Field Poppy” value (field poppy; 250 g ai/ha) was 100. The “Plant response rating, Field Violet” value (field violet; 62 g ai/ha) was 100, the “Plant response rating, Field Violet” value (field violet; 125 g ai/ha) was 100 and the “Plant response rating, Field Violet” value (field violet; 250 g ai/ha) was 100. For the same molecule, the “Kochia plant response rating” value (kochia; Postemergence, 31 g ai/ha) was 75, the “Kochia plant response rating” value (kochia; Postemergence, 125 g ai/ha) was 85 and the “Kochia plant response rating” value (kochia; Postemergence, 250 g ai/ha) was 85. For the same molecule, the “Kochia plant response rating” value (kochia; postemergence, 62 g ai/ha) was 75, the “Plant response rating, Wheat, Winter” value (wheat, winter; 62 g ai/ha) was 40 and the “Plant response rating, Wheat, Winter” value (wheat, winter; 125 g ai/ha) was 70. For the same molecule, the “Plant response rating, Wheat, Winter” value (wheat, winter; 250 g ai/ha) was 95, the “Plant response rating, Wheat, Spring” value (wheat, spring; 62 g ai/ha) was 55 and the “Plant response rating, Wheat, Spring” value (wheat, spring; 125 g ai/ha) was 75. For the same molecule, the “Plant response rating, Wheat, Spring” value (wheat, spring; 250 g ai/ha) was 100, the “Bluegrass plant response rating” value (bluegrass [2]; Postemergence, 31 g ai/ha) was 20 and the “Bluegrass plant response rating” value (bluegrass [2]; Postemergence, 125 g ai/ha) was 35. The “Bluegrass plant response rating” value (bluegrass [2]; Postemergence, 250 g ai/ha) was 40, the “Bluegrass plant response rating” value (bluegrass [2]; postemergence, 62 g ai/ha) was 20 and the “Blackgrass plant response rating” value (blackgrass; Postemergence, 31 g ai/ha) was 25. For the same molecule, the “Blackgrass plant response rating” value (blackgrass; Postemergence, 125 g ai/ha) was 50, the “Blackgrass plant response rating” value (blackgrass; Postemergence, 250 g ai/ha) was 65 and the “Blackgrass plant response rating” value (blackgrass; postemergence, 62 g ai/ha) was 25. For the same molecule, the “Plant response rating, Windgrass” value (windgrass; 62 g ai/ha) was 100, the “Plant response rating, Windgrass” value (windgrass; 125 g ai/ha) was 100 and the “Plant response rating, Windgrass” value (windgrass; 250 g ai/ha) was 100. The “Chickweed plant response rating” value (chickweed; Postemergence, 31 g ai/ha) was 55, the “Chickweed plant response rating” value (chickweed; Postemergence, 125 g ai/ha) was 70 and the “Chickweed plant response rating” value (chickweed; Postemergence, 250 g ai/ha) was 75. The “Chickweed plant response rating” value (chickweed; postemergence, 62 g ai/ha) was 55, the “Plant response rating, Foxtail, Green” value (foxtail, green; 62 g ai/ha) was 100 and the “Plant response rating, Foxtail, Green” value (foxtail, green; 125 g ai/ha) was 100. For the same molecule, the “Plant response rating, Foxtail, Green” value (foxtail, green; 250 g ai/ha) was 100, the “Plant response rating, Oilseed Rape” value (oilseed rape [3]; 62 g ai/ha) was 100 and the “Plant response rating, Oilseed Rape” value (oilseed rape [3]; 125 g ai/ha) was 100. For the same molecule, the “Plant response rating, Oilseed Rape” value (oilseed rape [3]; 250 g ai/ha) was 100, the “Canarygrass plant response rating” value (canarygrass; Postemergence, 31 g ai/ha) was 15 and the “Canarygrass plant response rating” value (canarygrass; Postemergence, 125 g ai/ha) was 20. For the same molecule, the “Canarygrass plant response rating” value (canarygrass; Postemergence, 250 g ai/ha) was 60, the “Canarygrass plant response rating” value (canarygrass; postemergence, 62 g ai/ha) was 15 and the “Plant response rating, Bluegrass” value (bluegrass [4]; 31 g ai/ha) was 20. The “Plant response rating, Bluegrass” value (bluegrass [4]; 62 g ai/ha) was 50, the “Plant response rating, Bluegrass” value (bluegrass [4]; 125 g ai/ha) was 80 and the “Plant response rating, Bluegrass” value (bluegrass [4]; 250 g ai/ha) was 95. For the same molecule, the “Ryegrass, Italian plant response rating” value (ryegrass, Italian; Postemergence, 31 g ai/ha) was 15, the “Ryegrass, Italian plant response rating” value (ryegrass, Italian; Postemergence, 125 g ai/ha) was 20 and the “Ryegrass, Italian plant response rating” value (ryegrass, Italian; Postemergence, 250 g ai/ha) was 50. The “Ryegrass, Italian plant response rating” value (ryegrass, Italian; postemergence, 62 g ai/ha) was 15, the “Plant response rating, Galium” value (galium; 62 g ai/ha) was 50 and the “Plant response rating, Galium” value (galium; 125 g ai/ha) was 100. The “Plant response rating, Galium” value (galium; 250 g ai/ha) was 100, the “Buckwheat, Wild plant response rating” value (buckwheat, wild; Postemergence, 31 g ai/ha) was 50 and the “Buckwheat, Wild plant response rating” value (buckwheat, wild; Postemergence, 125 g ai/ha) was 65. For the same molecule, the “Buckwheat, Wild plant response rating” value (buckwheat, wild; Postemergence, 250 g ai/ha) was 70, the “Buckwheat, Wild plant response rating” value (buckwheat, wild; postemergence, 62 g ai/ha) was 50 and the “Mustard, Wild plant response rating” value (mustard, wild; Postemergence, 31 g ai/ha) was 75. For the same molecule, the “Mustard, Wild plant response rating” value (mustard, wild; Postemergence, 125 g ai/ha) was 85, the “Mustard, Wild plant response rating” value (mustard, wild; Postemergence, 250 g ai/ha) was 90 and the “Mustard, Wild plant response rating” value (mustard, wild; postemergence, 62 g ai/ha) was 75. For the same molecule, the “Radish, Wild plant response rating” value (radish, wild; Postemergence, 31 g ai/ha) was 65, the “Radish, Wild plant response rating” value (radish, wild; Postemergence, 125 g ai/ha) was 65 and the “Radish, Wild plant response rating” value (radish, wild; Postemergence, 250 g ai/ha) was 65. For the same molecule, the “Radish, Wild plant response rating” value (radish, wild; postemergence, 62 g ai/ha) was 65.
